Values quoted from earlier work, collected in patent US20080182823A1, “POLYMER-LINKED-BIOPHOSPHONATE INHALANT FORMULATIONS AND METHODS FOR USING THE SAME” (priority 2007, published 2008).

System: antral mucosa
Conditions: rat models; Lichtenberger et al., Dig. Dis. Sci. 45(9):1792-1801, 2000

Row | SMILES | antral mucosal injury
1 | NCCCC(O)(P(=O)(O)O)P(=O)(O)O [alendronate, (4-amino-1-hydroxybutylidene)-bis-phosphonate] | cause antral mucosal injury
2 | O=P(O)(O)C(O)(Cc1cccnc1)P(=O)(O)O [risedronate, [1-Hydroxy-2-(3-pyridinyl)-ethylidine] bis-phosphonate] | cause antral mucosal injury
